Assay results published in ChEMBL document CHEMBL3885861, “Open TG-GATES”.

Species on record: Rattus norvegicus
Assay: Open TG-GATES - Regimen: Single
Assay type: toxicity, organism-based, Sprague-Dawley
Set-up: regimen Single, gender Male, age 6 weeks
Conditions: in vivo, po, 0 mg/kg, route gavage, dose level Control; for APTT / Bas / Eos / Fbg / Hb / Ht / Lym / MCH / MCHC / Mono / Neu / Plat / RBC / Ret / WBC: tissue Blood; for KIDNEY_L / KIDNEY_R / KIDNEY_TOTAL: tissue Kidney; for LIVER: tissue Liver; for ALP / ALT / AST / BUN / CRE / Ca / Cl / DBIL / GLC / IP / K / LDH / Na / PL / RALB / TBIL / TC / TG / TP / gamma-GTP: tissue Plasma

**Q.** Which results are given for O=C(CCCN1CCC(O)(c2ccc(Cl)cc2)CC1)c1ccc(F)cc1 [HALOPERIDOL]?
**A.** TERMINAL_BW (3 h): 208.8 g; APTT (3 h): 16.5 s; Bas (3 h): 0%; Eos (3 h): 0%; Fbg (3 h): 202 mg/dL; Hb (3 h): 13.4 g/dL; Ht (3 h): 40.2%; Lym (3 h): 77.8%; MCH (3 h): 21.8 pg; MCHC (3 h): 33.5%; Mono (3 h): 9.2%; Neu (3 h): 13%; Plat (3 h): 94.5 x10_4/uL; RBC (3 h): 616.8 x10_4/ul; Ret (3 h): 8.7%; WBC (3 h): 114.5 x10_2/uL; KIDNEY_L (3 h): 1 g; KIDNEY_R (3 h): 1 g; KIDNEY_TOTAL (3 h): 2 g; LIVER (3 h): 10.1 g; ALP (3 h): 1053.2 IU/L; ALT (3 h): 34.4 IU/L; AST (3 h): 64.4 IU/L; BUN (3 h): 16 mg/dL; CRE (3 h): 0.5 mg/dL; Ca (3 h): 11.4 mg/dL; Cl (3 h): 105 meq/L; DBIL (3 h): 0.006 mg/dL; GLC (3 h): 185.6 mg/dL; IP (3 h): 9.4 mg/dL; K (3 h): 5.2 meq/L; LDH (3 h): 85 IU/L; Na (3 h): 139 meq/L; PL (3 h): 151.4 mg/dL; RALB (3 h): 3.7 g/dL; TBIL (3 h): 0.4 mg/dL; TC (3 h): 82.8 mg/dL; TG (3 h): 63.2 mg/dL; TP (3 h): 5.6 g/dL; gamma-GTP (3 h): 1.4 IU/L; TERMINAL_BW (6 h): 200.9 g; APTT (6 h): 16.6 s; Bas (6 h): 0%; Eos (6 h): 0.2%; Fbg (6 h): 206.4 mg/dL; Hb (6 h): 13.6 g/dL; Ht (6 h): 40.6%; Lym (6 h): 72%; MCH (6 h): 21.7 pg; MCHC (6 h): 33.4%; Mono (6 h): 5.8%; Neu (6 h): 22%; Plat (6 h): 102.2 x10_4/uL; RBC (6 h): 625.8 x10_4/ul; Ret (6 h): 8.8%; WBC (6 h): 95.9 x10_2/uL; KIDNEY_L (6 h): 0.9 g; KIDNEY_R (6 h): 1 g; KIDNEY_TOTAL (6 h): 1.9 g; LIVER (6 h): 9.3 g; ALP (6 h): 862.2 IU/L; ALT (6 h): 34.8 IU/L; AST (6 h): 62 IU/L; BUN (6 h): 11.4 mg/dL; CRE (6 h): 0.5 mg/dL; Ca (6 h): 10.7 mg/dL; Cl (6 h): 104.8 meq/L; DBIL (6 h): 0.036 mg/dL; GLC (6 h): 175.2 mg/dL; IP (6 h): 10.1 mg/dL; K (6 h): 5.1 meq/L; LDH (6 h): 92.4 IU/L; Na (6 h): 137.6 meq/L; PL (6 h): 142.8 mg/dL; RALB (6 h): 3.7 g/dL; TBIL (6 h): 0.3 mg/dL; TC (6 h): 80.2 mg/dL; TG (6 h): 47.8 mg/dL; TP (6 h): 5.6 g/dL; gamma-GTP (6 h): 1.4 IU/L; TERMINAL_BW (9 h): 199.3 g; APTT (9 h): 16.7 s; Bas (9 h): 0%; Eos (9 h): 0.8%; Fbg (9 h): 205.4 mg/dL; Hb (9 h): 13.7 g/dL; Ht (9 h): 41%; Lym (9 h): 68.6%; MCH (9 h): 22.1 pg; MCHC (9 h): 33.3%; Mono (9 h): 6.6%; Neu (9 h): 24%; Plat (9 h): 103.6 x10_4/uL; RBC (9 h): 619.2 x10_4/ul; Ret (9 h): 8.3%; WBC (9 h): 96.1 x10_2/uL; KIDNEY_L (9 h): 0.9 g; KIDNEY_R (9 h): 0.9 g; KIDNEY_TOTAL (9 h): 1.8 g; LIVER (9 h): 8.6 g; ALP (9 h): 860.2 IU/L; ALT (9 h): 32.6 IU/L; AST (9 h): 59.8 IU/L; BUN (9 h): 12.2 mg/dL; CRE (9 h): 0.5 mg/dL; Ca (9 h): 10.5 mg/dL; Cl (9 h): 106.2 meq/L; DBIL (9 h): 0.024 mg/dL; GLC (9 h): 188.4 mg/dL; IP (9 h): 10.8 mg/dL; K (9 h): 5.1 meq/L; LDH (9 h): 83.8 IU/L; Na (9 h): 138 meq/L; PL (9 h): 134.4 mg/dL; RALB (9 h): 3.8 g/dL; TBIL (9 h): 0.4 mg/dL; TC (9 h): 76.8 mg/dL; TG (9 h): 35.4 mg/dL; TP (9 h): 5.5 g/dL; gamma-GTP (9 h): 1.8 IU/L; TERMINAL_BW (24 h): 214.4 g; APTT (24 h): 16.2 s; Bas (24 h): 0%; Eos (24 h): 0.8%; Fbg (24 h): 205.8 mg/dL; Hb (24 h): 13.3 g/dL; Ht (24 h): 39.3%; Lym (24 h): 75.4%; MCH (24 h): 22 pg; MCHC (24 h): 33.9%; Mono (24 h): 6.8%; Neu (24 h): 17%; Plat (24 h): 107.6 x10_4/uL; RBC (24 h): 605.8 x10_4/ul; Ret (24 h): 8.9%; WBC (24 h): 82.8 x10_2/uL; KIDNEY_L (24 h): 0.9 g; KIDNEY_R (24 h): 1 g; KIDNEY_TOTAL (24 h): 1.9 g; LIVER (24 h): 10.6 g; ALP (24 h): 1093.2 IU/L; ALT (24 h): 43 IU/L; AST (24 h): 64.8 IU/L; BUN (24 h): 19.2 mg/dL; CRE (24 h): 0.6 mg/dL; Ca (24 h): 11 mg/dL; Cl (24 h): 104.6 meq/L; DBIL (24 h): 0.028 mg/dL; GLC (24 h): 185.4 mg/dL; IP (24 h): 8.2 mg/dL; K (24 h): 4.9 meq/L; LDH (24 h): 82.6 IU/L; Na (24 h): 138.8 meq/L; PL (24 h): 165.4 mg/dL; RALB (24 h): 3.7 g/dL; TBIL (24 h): 0.4 mg/dL; TC (24 h): 87.2 mg/dL; TG (24 h): 94.8 mg/dL; TP (24 h): 5.7 g/dL
